Test results from publication PMC6874179, “Development of Macrocycle Kinase Inhibitors for ALK2 Using Fibrodysplasia Ossificans Progressiva‐Derived Endothelial Cells” (JBMR Plus, 2019).

Columns and labels:
NUAK1 = target: T1, NUAK1 (Homo sapiens, UniProt O60285); experiment: Proqinase Kinase profiling; type: biochemical; settings: read-out: % inhibition at 100nM
T1 construct: purchased DiscoverX

MARK1 = target: T2, MARK1 (Homo sapiens, UniProt Q9P0L2); experiment: Proqinase Kinase profiling; type: biochemical; settings: read-out: % inhibition at 100nM
T2 construct: purchased DiscoverX

CDK9_cyclinT1 = target: T3, CDK9_cyclinT1 (Homo sapiens, UniProt P50750); experiment: Proqinase Kinase profiling; type: biochemical; settings: read-out: % inhibition at 100nM
T3 construct: purchased DiscoverX

EPHA8 = target: T4, EPHA8 (Homo sapiens, UniProt P29322); experiment: Proqinase Kinase profiling; type: biochemical; settings: read-out: % inhibition at 100nM
T4 construct: purchased DiscoverX
T4 sequence (P29322 28-1005): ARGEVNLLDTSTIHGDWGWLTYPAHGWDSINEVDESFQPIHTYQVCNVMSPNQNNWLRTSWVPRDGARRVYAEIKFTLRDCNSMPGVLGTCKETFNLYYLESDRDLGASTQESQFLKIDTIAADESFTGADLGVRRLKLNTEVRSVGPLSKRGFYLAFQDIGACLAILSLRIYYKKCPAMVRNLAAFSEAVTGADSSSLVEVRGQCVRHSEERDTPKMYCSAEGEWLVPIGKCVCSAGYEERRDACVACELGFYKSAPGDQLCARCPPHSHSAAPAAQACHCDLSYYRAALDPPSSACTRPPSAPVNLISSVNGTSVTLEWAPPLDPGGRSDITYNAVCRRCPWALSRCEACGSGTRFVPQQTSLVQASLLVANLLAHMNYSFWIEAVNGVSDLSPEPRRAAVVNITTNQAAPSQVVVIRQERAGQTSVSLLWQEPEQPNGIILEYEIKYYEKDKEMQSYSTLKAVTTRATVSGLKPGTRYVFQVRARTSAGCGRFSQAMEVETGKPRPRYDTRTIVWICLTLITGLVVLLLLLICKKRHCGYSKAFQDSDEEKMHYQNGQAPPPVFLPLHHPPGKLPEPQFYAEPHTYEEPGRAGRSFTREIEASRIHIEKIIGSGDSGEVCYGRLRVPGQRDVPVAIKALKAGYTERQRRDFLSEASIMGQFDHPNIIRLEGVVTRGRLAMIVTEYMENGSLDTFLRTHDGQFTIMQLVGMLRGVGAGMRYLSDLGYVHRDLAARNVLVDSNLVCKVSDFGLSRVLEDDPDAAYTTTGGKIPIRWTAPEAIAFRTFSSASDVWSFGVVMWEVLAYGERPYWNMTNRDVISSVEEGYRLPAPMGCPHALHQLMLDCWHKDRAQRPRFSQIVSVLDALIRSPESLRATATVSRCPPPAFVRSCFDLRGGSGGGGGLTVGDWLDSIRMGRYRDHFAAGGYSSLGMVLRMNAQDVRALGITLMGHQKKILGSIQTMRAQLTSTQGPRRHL

MYLK3 = target: T5, MYLK3 (Homo sapiens, UniProt Q32MK0); experiment: Proqinase Kinase profiling; type: biochemical; settings: read-out: % inhibition at 100nM
T5 construct: purchased DiscoverX

WT ALK2 receptor = target: T6, WT ALK2 receptor (Homo sapiens, UniProt Q04771); experiment: BRE-LUC reporter assay in C2C12 cells cotransfected with WT ALK2; type: cell-based; settings: BMP-6 50 ng/mL 16 hours, 30-min preincubation, read-out: ALK2wt BMP-6 IC50
T6 construct: expressed in transfected cells; host or cells: C2C12 murine myofibroblast cells
Procedure: For luciferase reporter assays, cells were seeded in 24-well plates and transfected with DharmaFECT Duo (Fisher Scientific, Landsmeer, The Netherlands), following the recommendations of the manufacturer. 48 hours after transfection the cells were harvested and lysed. […] Each transfection mixture was equalized with empty vector when necessary and every experiment was performed in triplicate.

FLT3 = target: T7, FLT3 (Homo sapiens, UniProt P36888); experiment: Proqinase Kinase profiling; type: biochemical; settings: read-out: % inhibition at 100nM
T7 construct: purchased DiscoverX

CHEK1 = target: T8, CHEK1 (Homo sapiens, UniProt O14757); experiment: Proqinase Kinase profiling; type: biochemical; settings: read-out: % inhibition at 100nM
T8 construct: purchased DiscoverX

INSR = target: T9, INSR (Homo sapiens, UniProt P06213); experiment: Proqinase Kinase profiling; type: biochemical; settings: read-out: % inhibition at 100nM
T9 construct: purchased DiscoverX
T9 sequence (P06213 28-1382): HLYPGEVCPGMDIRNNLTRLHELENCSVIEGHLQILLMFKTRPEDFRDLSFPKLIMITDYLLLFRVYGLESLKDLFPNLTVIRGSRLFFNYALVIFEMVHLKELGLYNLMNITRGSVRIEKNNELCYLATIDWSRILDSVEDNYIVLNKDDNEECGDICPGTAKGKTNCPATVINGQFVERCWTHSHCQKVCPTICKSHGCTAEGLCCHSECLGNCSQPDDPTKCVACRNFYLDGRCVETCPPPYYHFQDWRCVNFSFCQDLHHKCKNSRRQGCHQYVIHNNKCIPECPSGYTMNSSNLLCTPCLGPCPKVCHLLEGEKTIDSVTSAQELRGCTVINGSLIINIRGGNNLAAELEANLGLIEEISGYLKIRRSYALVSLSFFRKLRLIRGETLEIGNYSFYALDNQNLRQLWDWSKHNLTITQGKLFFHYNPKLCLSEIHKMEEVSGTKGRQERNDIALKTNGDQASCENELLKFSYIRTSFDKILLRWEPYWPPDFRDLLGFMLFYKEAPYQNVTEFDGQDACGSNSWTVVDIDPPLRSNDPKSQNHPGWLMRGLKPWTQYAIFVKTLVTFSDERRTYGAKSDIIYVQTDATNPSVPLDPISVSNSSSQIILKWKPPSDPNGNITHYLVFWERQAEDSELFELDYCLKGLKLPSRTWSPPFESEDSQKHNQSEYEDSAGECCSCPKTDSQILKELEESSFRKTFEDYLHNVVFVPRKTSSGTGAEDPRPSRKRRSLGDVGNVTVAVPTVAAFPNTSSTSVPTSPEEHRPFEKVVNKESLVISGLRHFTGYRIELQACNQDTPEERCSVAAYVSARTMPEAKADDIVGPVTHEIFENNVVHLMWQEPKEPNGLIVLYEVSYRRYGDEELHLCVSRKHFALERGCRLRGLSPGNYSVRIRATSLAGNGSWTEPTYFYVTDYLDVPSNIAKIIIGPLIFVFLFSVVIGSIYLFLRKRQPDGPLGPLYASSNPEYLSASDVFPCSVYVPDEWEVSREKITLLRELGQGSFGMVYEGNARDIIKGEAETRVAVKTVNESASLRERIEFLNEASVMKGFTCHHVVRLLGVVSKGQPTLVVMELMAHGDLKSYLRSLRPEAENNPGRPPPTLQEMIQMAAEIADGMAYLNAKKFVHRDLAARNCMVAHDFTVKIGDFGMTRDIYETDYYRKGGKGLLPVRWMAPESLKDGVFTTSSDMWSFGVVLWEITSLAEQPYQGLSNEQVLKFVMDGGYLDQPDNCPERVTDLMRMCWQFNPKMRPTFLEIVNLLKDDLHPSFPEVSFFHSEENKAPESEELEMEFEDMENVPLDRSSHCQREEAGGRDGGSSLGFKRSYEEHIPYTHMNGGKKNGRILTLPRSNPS

ERBB4 = target: T10, ERBB4 (Homo sapiens, UniProt Q15303); experiment: Proqinase Kinase profiling; type: biochemical; settings: read-out: % inhibition at 100nM
T10 construct: purchased DiscoverX

FGFR4 = target: T11, FGFR4 (Homo sapiens, UniProt P22455); experiment: Proqinase Kinase profiling; type: biochemical; settings: read-out: % inhibition at 100nM
T11 construct: purchased DiscoverX

MYLK2 = target: T12, MYLK2 (Homo sapiens, UniProt Q9H1R3); experiment: Proqinase Kinase profiling; type: biochemical; settings: read-out: % inhibition at 100nM
T12 construct: purchased DiscoverX

PAK4 = target: T13, PAK4 (Homo sapiens, UniProt O96013); experiment: Proqinase Kinase profiling; type: biochemical; settings: read-out: % inhibition at 100nM
T13 construct: purchased DiscoverX
T13 sequence (O96013 whole entry): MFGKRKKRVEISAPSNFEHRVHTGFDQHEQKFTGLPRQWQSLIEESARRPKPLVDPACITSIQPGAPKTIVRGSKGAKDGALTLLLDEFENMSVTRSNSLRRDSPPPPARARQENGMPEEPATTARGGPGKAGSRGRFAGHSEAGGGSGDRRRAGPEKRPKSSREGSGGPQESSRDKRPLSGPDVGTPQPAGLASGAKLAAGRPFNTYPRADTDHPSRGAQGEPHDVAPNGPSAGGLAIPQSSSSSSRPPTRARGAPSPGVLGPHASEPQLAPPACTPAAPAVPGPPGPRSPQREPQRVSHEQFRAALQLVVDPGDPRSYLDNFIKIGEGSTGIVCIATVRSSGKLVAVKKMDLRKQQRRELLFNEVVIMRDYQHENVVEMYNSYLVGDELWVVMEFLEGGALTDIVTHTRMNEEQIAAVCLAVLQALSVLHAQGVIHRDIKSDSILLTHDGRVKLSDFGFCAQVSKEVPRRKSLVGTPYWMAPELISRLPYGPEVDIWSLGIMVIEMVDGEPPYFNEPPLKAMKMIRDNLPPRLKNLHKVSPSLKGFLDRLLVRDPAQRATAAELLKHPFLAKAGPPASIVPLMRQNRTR

GSK3B = target: T14, GSK3B (Homo sapiens, UniProt P49841); experiment: Proqinase Kinase profiling; type: biochemical; settings: read-out: % inhibition at 100nM
T14 construct: purchased DiscoverX

MKNK1 = target: T15, MKNK1 (Homo sapiens, UniProt Q9BUB5); experiment: Proqinase Kinase profiling; type: biochemical; settings: read-out: % inhibition at 100nM
T15 construct: purchased DiscoverX

CDK1_cyclinB = target: T16, CDK1_cyclinB (Homo sapiens, UniProt P06493); experiment: Proqinase Kinase profiling; type: biochemical; settings: read-out: % inhibition at 100nM
T16 construct: purchased DiscoverX

SGK2 = target: T17, SGK2 (Homo sapiens, UniProt Q9HBY8); experiment: Proqinase Kinase profiling; type: biochemical; settings: read-out: % inhibition at 100nM
T17 construct: purchased DiscoverX

LYN = target: T18, LYN (Homo sapiens, UniProt P07948); experiment: Proqinase Kinase profiling; type: biochemical; settings: read-out: % inhibition at 100nM
T18 construct: purchased DiscoverX

EGFR_E746-A750del = target: T19, EGFR_E746-A750del (Homo sapiens, UniProt P00533, DEL746-750); experiment: Proqinase Kinase profiling; type: biochemical; settings: read-out: % inhibition at 100nM
T19 construct: purchased DiscoverX

NEK3 = target: T20, NEK3 (Homo sapiens, UniProt P51956); experiment: Proqinase Kinase profiling; type: biochemical; settings: read-out: % inhibition at 100nM
T20 construct: purchased DiscoverX

FGR = target: T21, FGR (Homo sapiens, UniProt P09769); experiment: Proqinase Kinase profiling; type: biochemical; settings: read-out: % inhibition at 100nM
T21 construct: purchased DiscoverX
T21 sequence (P09769 whole entry): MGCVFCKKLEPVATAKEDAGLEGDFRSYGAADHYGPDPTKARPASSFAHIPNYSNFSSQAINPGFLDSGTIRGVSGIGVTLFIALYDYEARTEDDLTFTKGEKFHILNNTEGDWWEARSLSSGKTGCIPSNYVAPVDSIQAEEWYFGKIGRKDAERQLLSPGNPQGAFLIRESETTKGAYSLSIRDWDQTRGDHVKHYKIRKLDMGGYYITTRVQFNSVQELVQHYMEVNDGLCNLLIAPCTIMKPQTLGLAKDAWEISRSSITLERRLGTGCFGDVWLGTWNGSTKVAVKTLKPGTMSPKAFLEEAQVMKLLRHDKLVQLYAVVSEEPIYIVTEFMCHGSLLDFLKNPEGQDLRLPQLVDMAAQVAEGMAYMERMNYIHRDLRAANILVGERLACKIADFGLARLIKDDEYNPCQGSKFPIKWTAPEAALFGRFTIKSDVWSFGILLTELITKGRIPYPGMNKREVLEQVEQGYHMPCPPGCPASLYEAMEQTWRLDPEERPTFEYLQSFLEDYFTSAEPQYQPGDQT

MET_D1228H = target: T22, MET_D1228H (Homo sapiens, UniProt P08581, D1228H); experiment: Proqinase Kinase profiling; type: biochemical; settings: read-out: % inhibition at 100nM
T22 construct: purchased DiscoverX

KIT_V560G = target: T23, KIT_V560G (Homo sapiens, UniProt P10721, V560G); experiment: Proqinase Kinase profiling; type: biochemical; settings: read-out: % inhibition at 100nM
T23 construct: purchased DiscoverX

ROCK2 = target: T24, ROCK2 (Homo sapiens, UniProt O75116); experiment: Proqinase Kinase profiling; type: biochemical; settings: read-out: % inhibition at 100nM
T24 construct: purchased DiscoverX

PIM2 = target: T25, PIM2 (Homo sapiens, UniProt Q9P1W9); experiment: Proqinase Kinase profiling; type: biochemical; settings: read-out: % inhibition at 100nM
T25 construct: purchased DiscoverX
T25 sequence (Q9P1W9 whole entry): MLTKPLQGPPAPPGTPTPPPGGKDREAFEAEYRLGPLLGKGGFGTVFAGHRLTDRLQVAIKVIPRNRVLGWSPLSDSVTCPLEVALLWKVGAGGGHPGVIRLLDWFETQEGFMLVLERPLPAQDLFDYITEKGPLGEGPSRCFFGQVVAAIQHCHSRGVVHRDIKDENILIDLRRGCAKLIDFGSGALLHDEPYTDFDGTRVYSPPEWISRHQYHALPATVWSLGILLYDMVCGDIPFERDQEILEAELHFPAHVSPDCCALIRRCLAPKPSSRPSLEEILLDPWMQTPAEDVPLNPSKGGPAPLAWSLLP

ALK_F1174S = target: T26, ALK_F1174S (Homo sapiens, UniProt Q9UM73, F1174S); experiment: Proqinase Kinase profiling; type: biochemical; settings: read-out: % inhibition at 100nM
T26 construct: purchased DiscoverX

MAP2K1 = target: T27, MAP2K1 (Homo sapiens, UniProt Q02750); experiment: Proqinase Kinase profiling; type: biochemical; settings: read-out: % inhibition at 100nM
T27 construct: purchased DiscoverX

PRKD2 = target: T28, PRKD2 (Homo sapiens, UniProt Q9BZL6); experiment: Proqinase Kinase profiling; type: biochemical; settings: read-out: % inhibition at 100nM
T28 construct: purchased DiscoverX

PDK1 = target: T29, PDK1 (Homo sapiens, UniProt O15530); experiment: Proqinase Kinase profiling; type: biochemical; settings: read-out: % inhibition at 100nM
T29 construct: purchased DiscoverX

MET_F1200I = target: T30, MET_F1200I (Homo sapiens, UniProt P08581, F1200I); experiment: Proqinase Kinase profiling; type: biochemical; settings: read-out: % inhibition at 100nM
T30 construct: purchased DiscoverX

EPHB1 = target: T31, EPHB1 (Homo sapiens, UniProt P54762); experiment: Proqinase Kinase profiling; type: biochemical; settings: read-out: % inhibition at 100nM
T31 construct: purchased DiscoverX

ABL1_Q252H = target: T32, ABL1_Q252H (Homo sapiens, UniProt P00519, Q252H); experiment: Proqinase Kinase profiling; type: biochemical; settings: read-out: % inhibition at 100nM
T32 construct: purchased DiscoverX

SYK = target: T33, SYK (Homo sapiens, UniProt P43405); experiment: Proqinase Kinase profiling; type: biochemical; settings: read-out: % inhibition at 100nM
T33 construct: purchased DiscoverX

DYRK4 = target: T34, DYRK4 (Homo sapiens, UniProt Q9NR20); experiment: Proqinase Kinase profiling; type: biochemical; settings: read-out: % inhibition at 100nM
T34 construct: purchased DiscoverX
T34 sequence (Q9NR20 whole entry): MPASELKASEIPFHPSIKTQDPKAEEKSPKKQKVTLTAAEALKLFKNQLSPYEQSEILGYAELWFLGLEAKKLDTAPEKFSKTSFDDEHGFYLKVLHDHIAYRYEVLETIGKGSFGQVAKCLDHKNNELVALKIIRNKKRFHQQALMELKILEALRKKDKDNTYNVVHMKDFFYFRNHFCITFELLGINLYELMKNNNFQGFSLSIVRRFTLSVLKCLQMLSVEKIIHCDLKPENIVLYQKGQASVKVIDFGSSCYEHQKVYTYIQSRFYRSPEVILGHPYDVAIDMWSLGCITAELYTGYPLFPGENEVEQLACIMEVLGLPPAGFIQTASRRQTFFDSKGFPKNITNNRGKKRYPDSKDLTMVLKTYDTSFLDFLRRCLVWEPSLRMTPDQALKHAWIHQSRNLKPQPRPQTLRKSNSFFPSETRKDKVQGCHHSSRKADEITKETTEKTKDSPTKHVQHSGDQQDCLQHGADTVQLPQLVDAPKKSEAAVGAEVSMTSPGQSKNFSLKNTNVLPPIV

DMPK = target: T35, DMPK (Homo sapiens, UniProt Q09013); experiment: Proqinase Kinase profiling; type: biochemical; settings: read-out: % inhibition at 100nM
T35 construct: purchased DiscoverX

MAPK13 = target: T36, MAPK13 (Homo sapiens, UniProt O15264); experiment: Proqinase Kinase profiling; type: biochemical; settings: read-out: % inhibition at 100nM
T36 construct: purchased DiscoverX

MUSK = target: T37, MUSK (Homo sapiens, UniProt O15146); experiment: Proqinase Kinase profiling; type: biochemical; settings: read-out: % inhibition at 100nM
T37 construct: purchased DiscoverX

CDK16_cyclinY = target: T38, CDK16_cyclinY (Homo sapiens, UniProt Q00536); experiment: Proqinase Kinase profiling; type: biochemical; settings: read-out: % inhibition at 100nM
T38 construct: purchased DiscoverX

RPS6KA6 = target: T39, RPS6KA6 (Homo sapiens, UniProt Q9UK32); experiment: Proqinase Kinase profiling; type: biochemical; settings: read-out: % inhibition at 100nM
T39 construct: purchased DiscoverX
T39 sequence (Q9UK32 whole entry): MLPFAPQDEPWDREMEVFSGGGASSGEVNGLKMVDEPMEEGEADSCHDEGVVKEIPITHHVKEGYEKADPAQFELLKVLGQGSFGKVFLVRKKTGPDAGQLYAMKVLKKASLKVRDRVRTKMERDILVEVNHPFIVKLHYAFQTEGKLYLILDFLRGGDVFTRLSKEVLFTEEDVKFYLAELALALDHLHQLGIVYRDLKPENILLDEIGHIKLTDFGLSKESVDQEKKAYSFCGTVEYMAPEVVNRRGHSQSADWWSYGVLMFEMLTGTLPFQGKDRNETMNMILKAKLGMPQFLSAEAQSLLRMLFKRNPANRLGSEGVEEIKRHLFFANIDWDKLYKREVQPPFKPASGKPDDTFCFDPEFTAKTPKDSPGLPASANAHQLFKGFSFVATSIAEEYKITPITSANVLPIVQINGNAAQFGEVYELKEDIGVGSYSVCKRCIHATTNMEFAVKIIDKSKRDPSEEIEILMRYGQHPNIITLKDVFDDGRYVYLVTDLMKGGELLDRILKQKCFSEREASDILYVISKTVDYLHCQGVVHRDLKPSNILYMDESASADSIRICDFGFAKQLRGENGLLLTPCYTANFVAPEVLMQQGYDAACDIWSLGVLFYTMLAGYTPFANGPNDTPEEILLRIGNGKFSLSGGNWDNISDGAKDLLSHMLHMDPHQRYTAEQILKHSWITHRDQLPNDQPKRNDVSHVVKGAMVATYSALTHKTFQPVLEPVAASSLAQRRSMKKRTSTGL

ALK/NPM1 = target: T40, ALK/NPM1 (Homo sapiens, UniProt P06748+Q9UM73); experiment: Proqinase Kinase profiling; type: biochemical; settings: read-out: % inhibition at 100nM
T40 construct: purchased DiscoverX

| SMILES | inhibition at 0.1 µM (NUAK1) | inhibition at 0.1 µM (MARK1) | inhibition at 0.1 µM (CDK9_cyclinT1) | inhibition at 0.1 µM (EPHA8) | inhibition at 0.1 µM (MYLK3) | IC50 (WT ALK2 receptor) | inhibition at 0.1 µM (FLT3) | inhibition at 0.1 µM (CHEK1) | inhibition at 0.1 µM (INSR) | inhibition at 0.1 µM (ERBB4) | inhibition at 0.1 µM (FGFR4) | inhibition at 0.1 µM (MYLK2) | inhibition at 0.1 µM (PAK4) | inhibition at 0.1 µM (GSK3B) | inhibition at 0.1 µM (MKNK1) | inhibition at 0.1 µM (CDK1_cyclinB) | inhibition at 0.1 µM (SGK2) | inhibition at 0.1 µM (LYN) | inhibition at 0.1 µM (EGFR_E746-A750del) | inhibition at 0.1 µM (NEK3) | also measured |
| --- | --- | --- | --- | --- | --- | --- | --- | --- | --- | --- | --- | --- | --- | --- | --- | --- | --- | --- | --- | --- | --- |
| Clc1cc2cc(c1)-c1cnn3ccc(nc13)NCCOCCO2 [OD36] | 6% | 11% | 17% | 11% | 15% | 308 nM | 6% | 11% | 6% | 12% | 9% | 23% | -3% | 11% | 23% | 9% | 6% | 43% | 9% | 22% | inhibition at 0.1 µM (FGR): 26%; inhibition at 0.1 µM (MET_D1228H): 8%; inhibition at 0.1 µM (KIT_V560G): 19%; inhibition at 0.1 µM (ROCK2): 7%; inhibition at 0.1 µM (PIM2): 17%; inhibition at 0.1 µM (ALK_F1174S): 13%; inhibition at 0.1 µM (MAP2K1): 6%; inhibition at 0.1 µM (PRKD2): 9%; inhibition at 0.1 µM (PDK1): 4%; inhibition at 0.1 µM (MET_F1200I): 4%; inhibition at 0.1 µM (EPHB1): -2%; inhibition at 0.1 µM (ABL1_Q252H): 33%; inhibition at 0.1 µM (SYK): -1%; inhibition at 0.1 µM (DYRK4): 14%; inhibition at 0.1 µM (DMPK): 2%; inhibition at 0.1 µM (MAPK13): 15%; inhibition at 0.1 µM (MUSK): -1%; inhibition at 0.1 µM (CDK16_cyclinY): 12%; inhibition at 0.1 µM (RPS6KA6): 8% |
| Cc1cc2cc(c1)-c1cnn3ccc(nc13)NCCNC(=O)CCN(C)C2 [OD52] | -4% | -9% | -3% | -6% | 2% | 1570 nM | -18% | -8% | -4% | -10% | -28% | -4% | 7% | -9% | -11% | 6% | -1% | -14% | -11% | 6% | inhibition at 0.1 µM (FGR): 0%; inhibition at 0.1 µM (MET_D1228H): -11%; inhibition at 0.1 µM (KIT_V560G): -21%; inhibition at 0.1 µM (ROCK2): -9%; inhibition at 0.1 µM (PIM2): 4%; inhibition at 0.1 µM (ALK_F1174S): -18%; inhibition at 0.1 µM (MAP2K1): 10%; inhibition at 0.1 µM (PRKD2): 4%; inhibition at 0.1 µM (PDK1): -7%; inhibition at 0.1 µM (MET_F1200I): -4%; inhibition at 0.1 µM (EPHB1): -26%; inhibition at 0.1 µM (ABL1_Q252H): 1%; inhibition at 0.1 µM (SYK): -2%; inhibition at 0.1 µM (DYRK4): 4%; inhibition at 0.1 µM (DMPK): -5%; inhibition at 0.1 µM (MAPK13): 3%; inhibition at 0.1 µM (ALK/NPM1): -5%; inhibition at 0.1 µM (MUSK): -11%; inhibition at 0.1 µM (CDK16_cyclinY): -2%; inhibition at 0.1 µM (RPS6KA6): 0% |
